Results published in patent US11230541B2, “Heterocyclic compound” (Takeda Pharmaceutical Company Limited, priority 2017, dated 2022).

target: T1, NMDA receptor composed of four subunits including 2 sets of heterodimers of NR1 and NR2B (Homo sapiens, UniProt Q13224); experiment: NR2B Ca2+ influx assay (FLIPR, Fluo-4) in HEK293 cells expressing human GRIN1 and GRIN2B; assay type: cell-based; settings: HEK293, 10 μM final compound concentration, glutamic acid/glycine-induced Ca2+ influx, read-out: inhibitory rate (10 μM compound concentration)
T1 construct: host or cells: HEK293 (tetracycline-induced expression)
In short: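 Tetracycline-induced (2 h) HEK293 cells expressing human GRIN1/GRIN2B, Fluo-4-loaded, were preincubated 15 min at room temperature with compound at 10 μM final. FLIPR recorded Ca2+ influx every 3 s for 5 min after glutamate/glycine addition (30 μM in added buffer); inhibition from cumulative fluorescence relative to agonist-free wells.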

T1 sequence (Q13224 27-1484, other chains not shown): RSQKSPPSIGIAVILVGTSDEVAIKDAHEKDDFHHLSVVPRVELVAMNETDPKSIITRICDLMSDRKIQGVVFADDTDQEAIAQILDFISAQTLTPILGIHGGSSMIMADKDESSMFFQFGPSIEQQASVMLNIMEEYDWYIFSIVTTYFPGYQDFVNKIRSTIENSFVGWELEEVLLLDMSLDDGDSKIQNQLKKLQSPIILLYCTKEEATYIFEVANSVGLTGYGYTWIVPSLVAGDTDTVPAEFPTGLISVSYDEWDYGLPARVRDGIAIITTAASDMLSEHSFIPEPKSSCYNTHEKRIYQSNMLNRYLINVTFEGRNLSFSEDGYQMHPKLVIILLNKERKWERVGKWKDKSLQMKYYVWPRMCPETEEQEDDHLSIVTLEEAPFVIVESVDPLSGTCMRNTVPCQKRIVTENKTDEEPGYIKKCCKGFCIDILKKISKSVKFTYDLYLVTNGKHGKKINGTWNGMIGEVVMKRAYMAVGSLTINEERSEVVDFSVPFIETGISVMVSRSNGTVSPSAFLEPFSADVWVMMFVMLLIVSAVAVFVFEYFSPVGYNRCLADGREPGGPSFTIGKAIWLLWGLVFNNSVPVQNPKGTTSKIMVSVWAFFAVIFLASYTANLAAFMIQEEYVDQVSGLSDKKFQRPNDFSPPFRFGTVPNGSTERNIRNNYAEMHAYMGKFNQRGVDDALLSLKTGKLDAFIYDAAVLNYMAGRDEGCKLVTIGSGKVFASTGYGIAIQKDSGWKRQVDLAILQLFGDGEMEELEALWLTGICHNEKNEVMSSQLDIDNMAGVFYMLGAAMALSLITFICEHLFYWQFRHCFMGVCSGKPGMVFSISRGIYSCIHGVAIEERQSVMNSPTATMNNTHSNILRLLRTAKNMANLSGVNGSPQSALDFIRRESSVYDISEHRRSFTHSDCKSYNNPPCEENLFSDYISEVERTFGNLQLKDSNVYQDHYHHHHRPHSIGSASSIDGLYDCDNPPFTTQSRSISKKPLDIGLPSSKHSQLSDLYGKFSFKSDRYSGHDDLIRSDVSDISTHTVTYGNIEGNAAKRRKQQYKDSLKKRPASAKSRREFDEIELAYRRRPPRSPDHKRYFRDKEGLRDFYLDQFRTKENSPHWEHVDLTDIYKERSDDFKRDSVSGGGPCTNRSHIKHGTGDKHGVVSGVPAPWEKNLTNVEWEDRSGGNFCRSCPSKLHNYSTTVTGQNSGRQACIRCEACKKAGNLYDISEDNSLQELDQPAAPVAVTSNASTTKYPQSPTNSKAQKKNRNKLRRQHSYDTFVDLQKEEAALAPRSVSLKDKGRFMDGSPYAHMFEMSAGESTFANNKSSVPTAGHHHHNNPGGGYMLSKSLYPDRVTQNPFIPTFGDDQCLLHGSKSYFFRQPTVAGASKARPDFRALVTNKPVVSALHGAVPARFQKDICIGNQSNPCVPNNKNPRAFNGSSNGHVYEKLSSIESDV

| inhibition at 10 µM [%] | Structure (SMILES) |
| --- | --- |
| 92 | COc1ccc(C(=O)NCc2c(C3CC3)ccc3[nH]ncc23)cc1 [Example 101, N-((5-cyclopropyl-1H-indazol-4-yl)methyl)-methoxybenzamide] |
| 74 | O=C(NCc1cccc2[nH]ncc12)c1ccc(Cl)c(F)c1 [Example 187, 4-chloro-3-fluoro-N-(1H-indazol-4-ylmethyl)benzamide] |
| 64 | COc1ccc2nc(C)n(C)c2c1CNC(=O)c1ccc(Cl)c(F)c1 [Example 248, 4-chloro-3-fluoro-N-((6-methoxy-1,2-dimethyl-1H-benzimidazol-7-yl)methyl)benzamide] |
| 95 | COCc1ccc2ncn(C)c2c1CNC(=O)c1ccc(OC(F)(F)F)c(F)c1 [Example 284, 3-fluoro-N-{[6-(methoxymethyl)-1-methyl-1H-benzimidazol-7-yl]methyl}-4-(trifluoromethoxy)-benzamide] |
| 92 | COc1ccc2ncn(C)c2c1CNC(=O)Nc1ccc(C(F)(F)F)cc1F [Example 260, 1-(2-fluoro-4-(trifluoromethyl)-phenyl)-3-((6-methoxy-1-methyl-1H-benzimidazol-7-yl)methyl)urea] |
| 91 | COc1ccc2ncn(C)c2c1CNC(=O)c1ccc(Cl)c(C)c1 [Example 39, 4-chloro-N-((6-methoxy-1-methyl-1H-benzimidazol-7-yl)-methyl)-3-methyl-benzamide] |
| 94 | O=C(NCc1cccc2[nH]ncc12)c1ccc(OC(F)F)c(F)c1 [Example 192, 4-(difluoromethoxy)-3-fluoro-N-(1H-indazol-4-ylmethyl)benzamide] |
| 90 | CCc1ccc(C(=O)NCc2c(OC)ccc3ncn(C)c23)s1 [Example 122, 5-ethyl-N-((6-methoxy-1-methyl-1H-benzimidazol-7-yl)methyl)thiophene-2-carboxamide] |
| 92 | CCc1ccc2ncn(C)c2c1CNC(=O)c1csc(Cl)c1 [Example 147, 5-chloro-N-((6-ethyl-1-methyl-1H-benzimidazol-7-yl)methyl)thiophene-3-carboxamide] |
| 69 | COc1ccc(C(=O)NCc2c(OC)ccc3nc(C)n(C)c23)cc1F [Example 243, 3-fluoro-4-methoxy-N-((6-methoxy-1,2-dimethyl-lH-benzimidazol-7-yl)methyl)benzamide] |
| 82 | COc1ccc2ncn(C)c2c1CNC(=O)Nc1ccc(F)c(C)c1 [Example 217, 1-(4-fluoro-3-methylphenyl)-3-((6-methoxy-1-methyl-1H-benzimidazol-7-yl)methyl)urea] |
| 82 | COc1ccc2nc(C)n(C)c2c1CNC(=O)c1csc(C(F)(F)F)c1 [Example 230, N-((6-methoxy-1,2-dimethyl-1H-benzimidazol-7-yl)methyl)-5-(trifluoromethyl)-thiophene-3-carboxamide] |
| 70 | COc1ccc2nc(C)n(C)c2c1CNC(=O)c1ccc(C(F)F)cc1 [Example 241, 4-(difluoromethyl)-N-((6-methoxy-1,2-dimethyl-lH-benzimidazol-7-yl)methyl)benzamide] |
| 90 | CCc1ccc2ncn(C)c2c1CNC(=O)c1ccc(C(F)F)c(F)c1 [Example 146, 4-(difluoromethyl)-N-((6-ethyl-1-methyl-1H-benzimidazol-7-yl)methyl)-3-fluorobenzamide] |
| 91 | COc1ccc2[nH]ncc2c1CNC(=O)c1ccc(OC(F)(F)F)cc1 [Example 6, N-((5-methoxy-1H-indazol-4-yl)methyl)-4-(trifluoromethoxy)benzamide] |
| 82 | COc1cc(C(=O)NCc2c(C3CC3)ccc3[nH]ncc23)ccc1Cl [Example 81, 4-chloro-N-((5-cyclopropyl-1H-indazol-4-yl)methyl)-3-methoxybenzamide] |
| 70 | O=C(NCc1cccc2[nH]ncc12)c1ccc(C(F)F)c(F)c1 [Example 178, 4-(difluoromethyl)-3-fluoro-N-(1H-indazol-4-ylmethyl)benzamide] |
| 73 | COc1ccc2nc(C)n(C)c2c1CNC(=O)c1ccc(C(F)(F)F)s1 [Example 231, N-((6-methoxy-1,2-dimethyl-lH-benzimidazol-7-yl)methyl)-5-(trifluoromethyl)-thiophene-2-carboxamide] |
| 93 | O=C(NCc1c(C2CC2)ccc2[nH]ncc12)c1ccc(Cl)c(F)c1 [Example 78, 4-chloro-N-((5-cyclopropyl-1H-indazol-yl)methyl)-3-fluorobenzamide] |
| 87 | COc1ccc2ncn(C)c2c1CNC(=O)c1ccc(C)cc1 [Example 114, N-((6-methoxy-1-methyl-1H-benzimidazol-7-yl)methyl)-4-methylbenzamide] |
| 90 | COc1ccc2ncn(C)c2c1CNC(=O)c1cc(F)c(Cl)c(Cl)c1 [Example 55, 3,4-dichloro-5-fluoro-N-((6-methoxy-1-methyl-1H-benzimidazol-7-yl)methyl)benzamide] |

| inhibition at 10 µM [%] | Structure (SMILES) |
| --- | --- |
| 88 | CCOc1ccc2ncn(C)c2c1CNC(=O)c1ccc(C(F)F)s1 [Example 126, 5-(difluoromethyl)-N-((6-ethoxy-1-methyl-1H-benzimidazol-7-yl)methyl)thiophene-2-carboxamide] |
| 94 | O=C(NCc1c(C2CC2)ccc2[nH]nnc12)c1cnc(OC(F)F)c(F)c1 [Example 226, N-((5-cyclopropyl-1H-benzotriazol-4-yl)methyl)-6-(difluoromethoxy)-5-fluoronicotinamide] |
| 66 | Cc1ccc2ncn(C)c2c1CNC(=O)c1cc(F)c(C(F)(F)F)c(F)c1 [Example 26, N-((1,6-dimethyl-1H-benzimidazol-7-yl)-methyl)-3,5-difluoro-4-(trifluoromethyl)benzamide] |
| 90 | CCc1ccc2ncn(C)c2c1CNC(=O)c1csc(C(F)F)c1 [Example 132, 5-(difluoromethyl)-N-((6-ethyl-1-methyl-1H-benzimidazol-7-yl)methyl)thiophene-3-carboxamide] |
| 57 | COc1ccc2nc(C)n(C)c2c1CNC(=O)c1ccc(Cl)cc1 [Example 249, 4-chloro-N-((6-methoxy-1,2-dimethyl-1H-benzimidazol-7-yl)methyl)benzamide] |
| 98 | COc1ccc2[nH]nnc2c1CNC(=O)c1ccc(OC(F)(F)F)cc1 [Example 213, N-((5-methoxy-1H-benzotriazol-4-yl)methyl)-4-(trifluoromethoxy)-benzamide] |
| 90 | COc1ccc2ncn(C)c2c1CNC(=O)c1ccc(Cl)cc1 [Example 116, 4-chloro-N-((6-methoxy-1-methyl-1H-benzimidazol-7-yl)methyl)benzamide] |
| 82 | COCc1ccc2ncn(C)c2c1CNC(=O)c1cnc(OC(F)F)c(F)c1 [Example 281, 6-(difluoromethoxy)-5-fluoro-N-{[6-(methoxymethyl)-1-methyl-lH-benzimidazol-7-yl]methyl}pyridine-3-carboxamide] |
| 87 | COc1ccc2ncn(C)c2c1CNC(=O)Nc1cc(F)c(F)c(F)c1 [Example 220, 1-((6-methoxy-1-methyl-lH-benzimidazol-7-yl)methyl)-3-(3,4,5-trifluorophenyl)urea] |
| 91 | COc1ccc2ncn(C)c2c1CNC(=O)c1ccc(C)c(Cl)c1 [Example 38, 3-chloro-N-((6-methoxy-1-methyl-1H-benzimidazol-7-yl)-methyl)-4-methylbenzamide] |
| 88 | COCc1ccc2ncn(C)c2c1CNC(=O)c1cc(F)c(OC)c(F)c1 [Example 279, 3,5-difluoro-4-methoxy-N-{[6-(methoxymethyl)-1-methyl-1H-benzimidazol-7-yl]methyl}benzamide] |
| 92 | Cc1ccc2ncn(C)c2c1CNC(=O)c1ccc(OC(F)F)c(F)c1 [Example 109, 4-(difluoromethoxy)-N-((1,6-dimethyl-1H-benzimidazol-7-yl)methyl)-3-fluorobenzamide] |
| 90 | CCOc1ccc2ncn(C)c2c1CNC(=O)c1ccc(C(F)F)c(F)c1 [Example 141, 4-(difluoromethyl)-N-((6-ethoxy-1-methyl-1H-benzimidazol-7-yl)methyl)-3-fluorobenzamide] |
| 82 | Cn1nnc2cccc(CNC(=O)c3cnc(OC(F)F)c(F)c3)c21 [Example 275, 6-(difluoromethoxy)-5-fluoro-N-[(1-methyl-1H-benzotriazol-7-yl)methyl]pyridine-3-carboxamide] |
| 85 | CCc1ccc2[nH]nnc2c1CNC(=O)c1cnc(OC)c(F)c1 [Example 208, N-((5-ethyl-1H-benzotriazol-4-yl)methyl)-5-fluoro-6-methoxynicotinamide] |
| 76 | COc1ccc2nc(C)n(C)c2c1CNC(=O)c1cnc(OC(F)F)c(F)c1 [Example 251, 6-(difluoromethoxy)-5-fluoro-N-((6-methoxy-1,2-dimethyl-1H-benzimidazol-7-yl)methyl)nicotinamide] |
| 91 | Cc1ccc2[nH]nnc2c1CNC(=O)c1cc(F)c(C(F)(F)F)c(F)c1 [Example 195, 3,5-difluoro-N-((5-methyl-1H-benzotriazol-4-yl)methyl)-4-(trifluoromethyl)-benzamide] |
| 94 | O=C(NCc1c(C2CC2)ccc2[nH]ncc12)c1ccc(C(F)(F)F)cc1 [Example 61, N-((5-cyclopropyl-1H-indazol-4-yl)methyl)-4-(trifluoromethyl)-benzamide] |
| 91 | CCc1ccc2ncn(C)c2c1CNC(=O)c1cnc(OC(F)F)c(F)c1 [Example 143, 6-(difluoromethoxy)-N-((6-ethyl-1-methyl-1H-benzimidazol-7-yl)methyl)-5-fluoronicotinamide] |
| 85 | COc1ccc2ncn(C)c2c1CNC(=O)c1ccc(C)c(C(F)(F)F)c1 [Example 47, N-((6-methoxy-1-methyl-1H-benzimidazol-7-yl)-methyl)-4-methyl-3-(trifluoromethyl)benzamide] |
